Assay results from patent EP4603105A1, “PHARMACEUTICAL COMPOSITION CONTAINING CYCLIC COMPOUND HAVING SELECTIVE KRAS INHIBITORY EFFECT AGAINST HRAS AND NRAS” (CHUGAI SEIYAKU KABUSHIKI KAISHA, priority 2022, dated 2024).
Where a SMILES comes first, the peptide text is derived from it. Bridges are numbered along the chain shown (N, C = ends). [ ]: non-standard residue; d: D form. The star is where a group is joined. hPhe(3-Cl-4-CF3) = N[C@@H](CCc1ccc(C(F)(F)F)c(Cl)c1)C(=O)O; NPrPhe(4-CF3) = CCCN[C@@H](Cc1ccc(C(F)(F)F)cc1)C(=O)O; NMeGly(cPent) = CN[C@H](C(=O)O)C1CCCC1; Gly(cPent) = N[C@H](C(=O)O)C1CCCC1; NMeD = CN[C@@H](CC(=O)O)C(=O)O; NMeL = CN[C@@H](CC(C)C)C(=O)O; Pip = O=C(O)[C@@H]1CCCCN1; Morpholide = C1CN(*)CCO1; Ac5c = NC1(C(=O)O)CCCC1; Aze = O=C(O)[C@@H]1CCN1; Sar = CNCC(=O)O

Key:
[1] = target: GDP-bound NRAS wild-type protein (Homo sapiens, UniProt P01111); assay: Binding to NRAS by surface plasmon resonance (SPR), KD and KD ratio to KRAS
Chain of GDP-bound NRAS wild-type protein (P01111 whole entry): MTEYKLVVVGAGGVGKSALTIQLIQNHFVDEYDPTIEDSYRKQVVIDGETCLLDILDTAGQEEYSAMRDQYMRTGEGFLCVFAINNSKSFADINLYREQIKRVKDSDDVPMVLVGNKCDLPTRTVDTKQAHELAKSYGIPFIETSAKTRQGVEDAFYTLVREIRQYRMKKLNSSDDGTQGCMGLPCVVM
Outline: (§1)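 Measured at 30°C: SPR with GDP-loaded, E. coli-expressed biotin-Avi RAS captured (~100–300 RU), ascending 75 s compound injections, HBS pH 7.4 with GDP, MgCl2, 4% DMSO. KD from 1:1 fit.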

[2] = target: HRAS wild-type protein (Homo sapiens, UniProt P01112); assay: Binding to HRAS by surface plasmon resonance (SPR), KD and KD ratio to KRAS
Chain of HRAS wild-type protein (P01112 whole entry): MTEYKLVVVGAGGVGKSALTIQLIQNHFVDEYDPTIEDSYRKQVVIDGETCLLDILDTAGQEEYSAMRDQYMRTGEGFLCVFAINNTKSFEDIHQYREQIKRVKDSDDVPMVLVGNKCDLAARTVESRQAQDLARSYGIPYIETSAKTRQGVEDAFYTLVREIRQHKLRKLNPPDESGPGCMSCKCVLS
Outline: as §1

[3] = test system: human lung cancer strain NCI-H441; type: cell-based
Outline: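 Signal came from […] measured per well once the reagent was added. Beforehand, cells were cultured at 37°C and 5% carbon dioxide on a compound series serially diluted in dimethyl sulfoxide.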

[4] = target: GDP-bound KRAS wild-type protein (Homo sapiens, UniProt P01116); assay: Binding to KRAS by surface plasmon resonance (SPR), dissociation constant KD
Chain of GDP-bound KRAS wild-type protein (P01116 1-188 isoform P01116-2): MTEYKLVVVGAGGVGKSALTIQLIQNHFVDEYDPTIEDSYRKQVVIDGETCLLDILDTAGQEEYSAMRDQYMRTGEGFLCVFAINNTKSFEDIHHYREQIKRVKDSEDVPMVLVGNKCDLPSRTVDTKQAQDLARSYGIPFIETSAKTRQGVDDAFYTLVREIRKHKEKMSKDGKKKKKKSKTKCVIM
Outline: as §1

[5] = ratio of KD for GDP-bound NRAS wild-type protein to KD for KRAS
[6] = ratio of KD for HRAS wild-type protein to KD for KRAS
[7] = Single Cycle Kinetics, 1:1 binding model
[8] = ratio of the KD value with respect to GDP-bound NRAS wild-type protein to the KD value with respect to KRAS
[9] = ratio of the KD value with respect to HRAS wild-type protein to the KD value with respect to KRAS

| SMILES | NRAS /KRAS [1, 5] | HRAS /KRAS [2, 6] | IC50 [3] [nM] | Kd ([4]; 1:1 binding model) [nM] | NRAS /KRAS ([1]; ratio of KD value for GDP-bound NRAS wild-type protein to KD value for KRAS (SPR)) | HRAS /KRAS ([2]; ratio of KD value for HRAS wild-type protein to KD value for KRAS (SPR)) | Kd [4, 7] [nM] | NRAS /KRAS [1, 8] | HRAS /KRAS [2, 9] | Kd ([4]; Single Cycle Kinetics) [nM] |
| --- | --- | --- | --- | --- | --- | --- | --- | --- | --- | --- |
| CCC[C@H]1C(=O)N[C@@H]([C@@H](C)CC)C(=O)N(C)CC(=O)N(C)[C@H]2C/C=C\CCN(C2=O)[C@@H](Cc2ccc(C(F)(F)F)cc2)C(=O)N(C)CC(=O)N[C@@H](CCc2ccc3sc(F)c(C)c3c2)C(=O)N2C[C@H](OCC)C[C@H]2C(=O)NC2(CC(C)(C)C2)C(=O)N(C)[C@@H](C2CCCC2)C(=O)N(C)[C@H](C(=O)N(C)C)CC(=O)N1C [PP2948] | A (a compound having 10 or more and less than 20 is denoted as A) | A (a compound having 10 or more and less than 20 is denoted as A) | 3.3 | 0.55 |  |  |  |  |  |  |
| CCC[C@H]1C(=O)N[C@@H]([C@@H](C)CC)C(=O)N(C)CC(=O)N(C)[C@H]2C/C=C\CCN(C2=O)[C@@H](Cc2ccc(C)cc2)C(=O)N(C)CC(=O)N[C@@H](CCc2ccc(C(F)(F)F)c(Cl)c2)C(=O)N2C[C@H](C)C[C@H]2C(=O)NC2(CC(C)(C)C2)C(=O)N(C)[C@@H](C2CCCC2)C(=O)N(C)[C@H](C(=O)N(C)CC)CC(=O)N1C [PP1894] |  |  | 15.9 |  | A (a compound having 10 or more and less than 20 is denoted as A) | A (a compound having 10 or more and less than 20 is denoted as A) | 0.2 |  |  |  |
| CC[C@H](C)[C@@H]1NC(=O)[C@H](CC(C)C)N(C)C(=O)C[C@@H](C(=O)N2CCOCC2)N(C)C(=O)[C@H](C2CCCC2)N(C)C(=O)C2(CCCC2)NC(=O)[C@@H]2CCCN2C(=O)[C@H](CCc2ccc(C(F)(F)F)c(Cl)c2)NC(=O)CN(C)C(=O)[C@H](Cc2ccccc2)N2CCCCC[C@@H](C2=O)N(C)C(=O)CN(C)C1=O [PP0611] |  |  | 88.9 |  |  |  | 0.73 | B (a compound having 3 or more and less than 10 is denoted as B) | B (a compound having 3 or more and less than 10 is denoted as B) |  |
| CCCOC[C@H]1C(=O)N[C@@H]([C@@H](C)CC)C(=O)N(C)CC(=O)N(C)[C@H]2C/C=C\CCN(C2=O)[C@@H](Cc2ccc(C)cc2)C(=O)N(C)CC(=O)N[C@@H](CCc2cc(F)c(C(F)(F)F)c(F)c2)C(=O)N2C[C@H](CC)C[C@H]2C(=O)NC2(CCCC2)C(=O)N(C)[C@@H](C2CCCC2)C(=O)N(C)[C@H](C(=O)N(C)C)CC(=O)N1C [PP2218] |  |  | 24 |  |  |  | 0.29 | A (a compound having 10 or more and less than 20 is denoted as A) | A (a compound having 10 or more and less than 20 is denoted as A) |  |
| CCCN1C(=O)[C@@H]2CCN2C(=O)[C@@H]2CCCCN2C(=O)[C@H]([C@@H](C)CC)NC(=O)[C@H](CC(C)C)N(C)C(=O)C[C@@H](C(=O)N2CCOCC2)N(C)C(=O)[C@H](C2CCCC2)N(C)C(=O)C2(CCCC2)NC(=O)[C@@H]2CCCN2C(=O)[C@H](CCc2ccc(C(F)(F)F)c(Cl)c2)NC(=O)CN(C)C(=O)[C@@H]1Cc1ccc(C(F)(F)F)cc1 [PP0077] ([NMeL]I[Pip][Aze][NPrPhe(4-CF3)][Sar][hPhe(3-Cl-4-CF3)]P[Ac5c][NMeGly(cPent)][NMeD]-Morpholide; lactam N-11) | C (A compound having a KD ratio of 0.1 or more and less than 3 is denoted as C) | B (a compound having 3 or more and less than 10 is denoted as B) | 5.3 | 0.2 |  |  |  |  |  |  |
| CCCN1C(=O)CN(C)C(=O)[C@@H]2CCN2C(=O)[C@H](C2CCCC2)NC(=O)[C@H](CC(C)C)N(C)C(=O)C[C@@H](C(=O)N2CCOCC2)N(C)C(=O)[C@H](C2CCCC2)N(C)C(=O)C2(CCCC2)NC(=O)[C@@H]2CCCN2C(=O)[C@H](CCc2ccc(C(F)(F)F)c(Cl)c2)NC(=O)CN(C)C(=O)[C@@H]1Cc1ccc(C(F)(F)F)cc1 [PP0306] ([NMeL][Gly(cPent)][Aze][Sar][NPrPhe(4-CF3)][Sar][hPhe(3-Cl-4-CF3)]P[Ac5c][NMeGly(cPent)][NMeD]-Morpholide; lactam N-11) | B (a compound having 3 or more and less than 10 is denoted as B) | B (a compound having 3 or more and less than 10 is denoted as B) | 142 | 1.2 |  |  |  |  |  |  |
| CCO[C@@H]1C[C@H]2C(=O)NC3(CCC3)C(=O)N(C)[C@@H](C3CCCC3)C(=O)N(C)[C@H](C(=O)N(C)C)CC(=O)N(C)[C@@H](CC)C(=O)N[C@@H]([C@@H](C)CC)C(=O)N3CC[C@@H]3C(=O)N(C)[C@H]3C/C=C\CCN(C3=O)[C@@H](Cc3ccc(C(F)(F)F)cc3)C(=O)N(C)CC(=O)N[C@@H](CCc3cc(F)c(C(F)(F)F)c(F)c3)C(=O)N2C1 [PP1064] | A (a compound having 10 or more and less than 20 is denoted as A) | A (a compound having 10 or more and less than 20 is denoted as A) | 1390 |  |  |  |  |  |  | 17 |
| CCO[C@@H]1C[C@H]2C(=O)NC3(CC(C)(C)C3)C(=O)N(C)[C@@H](C3CCCC3)C(=O)N(C)[C@H](C(=O)N(C)C)CC(=O)N(C)[C@@H]([C@H](C)OC)C(=O)N[C@@H]([C@@H](C)CC)C(=O)N3CCC[C@H]3C(=O)N(C)[C@H]3C/C=C\CCN(C3=O)[C@@H](Cc3ccc(C(F)(F)F)cc3)C(=O)N(C)CC(=O)N[C@@H](CCc3ccc(C(F)(F)F)c(OC)c3)C(=O)N2C1 [PP3179] | A (a compound having 10 or more and less than 20 is denoted as A) | A (a compound having 10 or more and less than 20 is denoted as A) | 70.9 | 0.77 |  |  |  |  |  |  |
| CCC(CC)[C@H]1C(=O)N(C)[C@H](C(=O)N(C)C)CC(=O)N(C)[C@@H](COC)C(=O)N[C@@H]([C@@H](C)CC)C(=O)N(C)CC(=O)N(C)[C@H]2C/C=C\CCN(C2=O)[C@@H](Cc2ccc(C)cc2)C(=O)N(C)CC(=O)N[C@@H](CCc2ccc(C(F)(F)F)c(Cl)c2)C(=O)N2CCCCC[C@H]2C(=O)NC2(CC(C)(C)C2)C(=O)N1C [PP2966] | A (a compound having 10 or more and less than 20 is denoted as A) | A (a compound having 10 or more and less than 20 is denoted as A) | 29.3 | 0.57 |  |  |  |  |  |  |
| CCO[C@@H]1C[C@H]2C(=O)NC3(CC(C)(C)C3)C(=O)N(C)[C@@H](C3CCCC3)C(=O)N(C)[C@H](C(=O)N(C)C)CC(=O)N(C)[C@@H]([C@H](C)OC)C(=O)N[C@@H]([C@@H](C)CC)C(=O)N(C)CC(=O)N(C)[C@H]3C/C=C\CCN(C3=O)[C@@H](Cc3ccc(C)cc3)C(=O)N(C)CC(=O)N[C@@H](CCc3ccc(C(F)(F)F)c(OC)c3)C(=O)N2C1 [PP3185] | A (a compound having 10 or more and less than 20 is denoted as A) | A (a compound having 10 or more and less than 20 is denoted as A) | 16.1 | 0.12 |  |  |  |  |  |  |
| CCCN(C)C(=O)[C@@H]1CC(=O)N(C)[C@@H](COCC)C(=O)N[C@@H]([C@@H](C)CC)C(=O)N(C)CC(=O)N(C)[C@H]2C/C=C\CCN(C2=O)[C@@H](Cc2ccc(C(F)(F)F)cc2)C(=O)N(C)CC(=O)N[C@@H](CCc2ccc(C(F)(F)F)c(OC)c2)C(=O)N2C[C@@H](C)C[C@H]2C(=O)NC2(CCC2)C(=O)N(C)[C@@H](C2CCCC2)C(=O)N1C [PP2025] |  |  | 13.4 |  |  |  | 0.061 | A (a compound having 10 or more and less than 20 is denoted as A) | B (a compound having 3 or more and less than 10 is denoted as B) |  |
| CCC[C@H]1C(=O)N[C@@H]([C@@H](C)CC)C(=O)N(C)CC(=O)N(C)[C@H]2C/C=C\CCN(C2=O)[C@@H](Cc2ccc(C)cc2)C(=O)N(C)CC(=O)N[C@@H](CCc2ccc(C(F)(F)F)c(OC)c2)C(=O)N2C[C@H](OCC)C[C@H]2C(=O)NC2(CC(C)(C)C2)C(=O)N(C)[C@@H](CC(C)C)C(=O)N(C)[C@H](C(=O)N(C)C)CC(=O)N1C [PP3008] | A (a compound having 10 or more and less than 20 is denoted as A) | A (a compound having 10 or more and less than 20 is denoted as A) | 16 | 0.38 |  |  |  |  |  |  |
| CCO[C@@H]1C[C@H]2C(=O)NC3(CC(C)(C)C3)C(=O)N(C)[C@@H](C3CCCC3)C(=O)N(C)[C@H](C(=O)N(C)C)CC(=O)N(C)[C@@H]([C@@H](C)OC)C(=O)N[C@@H]([C@@H](C)CC)C(=O)N(C)CC(=O)N(C)[C@H]3C/C=C\CCN(C3=O)[C@@H](Cc3ccc(C)cc3)C(=O)N(C)CC(=O)N[C@@H](CCc3ccc(C(F)(F)F)c(Cl)c3)C(=O)N2C1 [PP3209] | A (a compound having 10 or more and less than 20 is denoted as A) | B (a compound having 3 or more and less than 10 is denoted as B) | 5.5 | 0.1 |  |  |  |  |  |  |
